Results from patent publication US5449612A, “Process for identifying candida by means of chromogenic substances” (Serbio, priority 1990, dated 1995).
Like-named read-outs stand apart in the source and are kept apart here. Non-standard residues stand in square brackets, D forms with d. Residues, ends and D or L forms follow the SMILES beside them. *: point of attachment. Hyp = O=C(O)[C@@H]1C[C@@H](O)CN1; pNA = O=[N+]([O-])c1ccc(N*)cc1; Phg = N[C@H](C(=O)O)c1ccccc1; Pip = O=C(O)[C@@H]1CCCCN1; Boc = CC(C)(C)OC(=O)*

Experiments:
T. glabrata [1] = assay: Tests on substrates against T. glabrata, colour reading on buffered gelose; on T. GLABRATA reading at 24 h: key: -: none; +: weak; ++: moderate; +++: intense; ++++: very intense; assay type: cell-based, Torulopsis glabrata; parameters: T. GLABRATA reading at 48 h: key: -: none; +: weak; ++: moderate; +++: intense; ++++: very intense
Candida guillermondii = assay: Tests on substrates against Candida guillermondii; parameters: Reading at 24 h: key to the marks not given beside the values; conditions: for Reading at 24 h: Table V
Candida tropicalis = assay: Tests on substrates against Candida tropicalis, colour reading on buffered gelose; assay type: cell-based; parameters: C. TROPICALIS reading at 48 h: key to the marks not given beside the values; conditions: for C. TROPICALIS reading at 24 h: Table III, medium pH 6.0; for Reading at 24 h: Table II, medium pH 6.0, YNB, glucose, agar, gentamycin
Candida albicans = assay: Tests on substrates against Candida albicans, colour reading on buffered gelose; assay type: cell-based; conditions: Table I; medium pH 6.0, YNB, glucose, agar, gentamycin; coloration or fluorescence
Candida krusei = assay: Tests on substrates against Candida krusei, colour reading on buffered gelose; on Reading at 24 h: key: -: none; +: weak; ++: moderate; +++: intense; ++++: very intense; assay type: cell-based; parameters: key to Specificity: interference with C. krusei: (a): interference with C. albicans (++++); (b): interference with C. krusei (++); (c): interference with C. tropicalis (++); conditions: for Reading at 24 h: Table IV, medium pH 6.0
T. glabrata [2] = assay: Diagnosis from isolated colonies on gelose 2/5; assay type: cell-based, Torulopsis glabrata; further: key: -: none; +: weak; ++: moderate; +++: intense; ++++: very intense
C. albicans = assay: Diagnosis from isolated colonies on gelose 2/5; assay type: cell-based, Candida albicans; further: key: -: none; +: weak; ++: moderate; +++: intense; ++++: very intense
C. krusei = assay: Diagnosis from isolated colonies on gelose 2/5; assay type: cell-based, Candida krusei
Protocol: According to the afore-mentioned best mode of carrying out the invention, a culture medium containing the following ingredients is prepared; it is called gelose 2 below and is buffered to pH 6.0.
According to the afore-mentioned best mode of carrying out the invention, a culture medium containing the following ingredients is prepared; it is called gelose 5 below and is buffered to pH 6.0.
Several isolated strains of C. albicans, C. tropicalis, C. krusei, C. guillermondii, C. pseudotropicalis, C. parapsilosis, C. zeylanoides, T. glabrata and Trichosporon cutaneum were inoculated and incubated on the media of Examples 1 to 5. […] Part of the results obtained has been collated in Table VI below, where the TTC column relates to results of tests undertaken separately on a standard gelose medium containing TTC.
Several isolated strains of C. albicans, C. tropicalis, C. krusei, C. guillermondii and T. glabrata were inoculated and incubated on the media of Example 2 [containing either the substrate N-Ac-β-D-galactosaminide-PNP of the prior art, or the substrates H-L-PropNA.AcOH (specific for C. albicans), EM-L-Phg-L-ArgpNA.AcOH (specific for T. glabrata) and H-Gly-L-Pro-L-Arg-pNA.2AcOH (specific for C. krusei)]and of Example 5 (containing the substrate H-L-Pro-pNA.AcOH).

C. tropicalis = assay: Diagnosis from isolated colonies on gelose 2/5; assay type: cell-based, Candida tropicalis
[3] = Table VII, isolated colonies, 9 strains, gelose 2
[4] = Table VII, isolated colonies, 6 strains, gelose 2

CC(C)(C)OC(=O)NCC(=O)N1CCC[C@H]1C(=O)N[C@@H](CCCNC(=N)N)C(=O)Nc1ccc([N+](=O)[O-])cc1 [Boc-Gly-L-Pro-L-Arg-pNA.AcOH] (Boc-Gly-Pro-Arg-pNA)
Specificity: interference with T. glabrata (T. glabrata [1]): (e) and (f) | T. GLABRATA reading at 24 h (T. glabrata [1]; pH 6): +++ | Specificity: interference with C. guillermondii (Candida guillermondii; Table I): (d) | Specificity: interference with C. tropicalis (Candida tropicalis; Table I): (b) | C. TROPICALIS reading at 24 h (Candida tropicalis): + | Specificity: interference with C. tropicalis (Candida tropicalis; Table IV): (b) | Reading at 24 h (Candida albicans): ++ | Reading at 24 h (Candida krusei): -

CC(C)(C)OC(=O)N1C[C@H](O)C[C@H]1C(=O)N1CCC[C@H]1C(=O)N[C@@H](CCCNC(=N)N)C(=O)Nc1ccc([N+](=O)[O-])cc1 [Boc-L-4Hyp-L-Pro-L-Arg-pNA.AcOH] (Boc-[Hyp]-Pro-Arg-pNA)
Specificity: interference with C. tropicalis (Candida tropicalis; Table I): (b) | Reading at 24 h (Candida albicans): ++++

CC(C)C[C@H](NC(=O)OC(C)(C)C)C(=O)N[C@@H](CO)C(=O)N[C@H](C(=O)N[C@@H](CCCNC(=N)N)C(=O)Nc1ccc([N+](=O)[O-])cc1)[C@@H](C)O [Boc-L-Leu-L-Ser-L-Thr-L-Arg-pNA.AcOH] (Boc-LSTR-pNA)
Reading at 24 h (Candida guillermondii): ++++ | Specificity: interference with C. tropicalis (Candida tropicalis; Table V): (c)

N=C(N)NCCC[C@H](NC(=O)[C@@H]1CCCN1C(=O)CNC(=O)[C@H]1CCCN1)C(=O)Nc1ccc([N+](=O)[O-])cc1 [H-D-Pro-Gly-L-Pro-L-Arg-pNA.2AcOH] (H-[dP]GPR-pNA)
T. GLABRATA reading at 24 h (T. glabrata [1]; pH 6): + | C. TROPICALIS reading at 24 h (Candida tropicalis): +

N=C(N)NCCC[C@H](NC(=O)[C@@H](NC(=O)[C@H]1CCCN1)c1ccccc1)C(=O)Nc1ccc([N+](=O)[O-])cc1 [H-D-Pro-L-Phg-L-Arg-pNA.2AcOH] (H-[dP]-[Phg]-Arg-pNA)
T. GLABRATA reading at 24 h (T. glabrata [1]; pH 6): - | C. TROPICALIS reading at 24 h (Candida tropicalis): ++

N=C(N)NCCC[C@H](NC(=O)[C@@H]1CCCN1C(=O)CNC(=O)CN)C(=O)Nc1ccc([N+](=O)[O-])cc1 [H-Gly-Gly-L-Pro-L-Arg-pNA.2AcOH] (H-GGPR-pNA)
T. GLABRATA reading at 24 h (T. glabrata [1]; pH 6): + | C. TROPICALIS reading at 24 h (Candida tropicalis): + | Specificity: interference with C. tropicalis (Candida tropicalis; Table IV): (d) | Reading at 24 h (Candida krusei): ++

N=C(N)NCCC[C@H](NC(=O)[C@@H]1CCCCN1C(=O)CN)C(=O)Nc1ccc([N+](=O)[O-])cc1 [H-Gly-L-Pip-L-Arg-pNA.2AcOH] (H-Gly-[Pip]-Arg-pNA)
Specificity: interference with C. tropicalis (Candida tropicalis; Table I): (b) | Reading at 24 h (Candida albicans): ++

N=C(N)NCCC[C@H](NC(=O)[C@@H]1CCCN1C(=O)CN)C(=O)Nc1ccc([N+](=O)[O-])cc1 [H-Gly-L-Pro-L-Arg-pNA.2AcOH] (H-Gly-Pro-Arg-pNA)
T. GLABRATA reading at 24 h (T. glabrata [1]; pH 6): - | Reading at t = 24 h (T. glabrata [2]): - | Specificity: interference with C. tropicalis (Candida tropicalis; Table I): (b) | Reading at 24 h (Candida tropicalis): ++++ | C. TROPICALIS reading at 24 h (Candida tropicalis): ++++ | Specificity: interference with C. tropicalis (Candida tropicalis; Table IV): (a) | Reading at t = 24 h (C. albicans): - | Reading at t = 24 h (C. krusei): +++ | Reading at 24 h (Candida albicans): ++++ | Reading at t = 24 h (C. tropicalis): ++ | Specificity: interference with C. krusei (Candida krusei; Table I): (c) | Reading at 24 h (Candida krusei): ++++

NCC(=O)N1CCC[C@H]1C(=O)Nc1ccc([N+](=O)[O-])cc1 [H-Gly-L-Pro-pNA.AcOH] (H-Gly-Pro-pNA)
hydrolysis by the strains of C. tropicalis (C. tropicalis): hydrolyzed

N=C(N)NCCC[C@H](NC(=O)[C@@H]1CCCN1C(=O)[C@@H]1C[C@@H](O)CN1)C(=O)Nc1ccc([N+](=O)[O-])cc1 [H-L-4Hyp-L-Pro-L-Arg-pNA.2AcOH] (H-[Hyp]-Pro-Arg-pNA)
Specificity: interference with C. tropicalis (Candida tropicalis; Table I): (b) | Reading at 24 h (Candida albicans): ++++

N=C(N)NCCC[C@H](NC(=O)[C@@H]1CCCN1C(=O)[C@@H]1CCCN1)C(=O)Nc1ccc([N+](=O)[O-])cc1 [H-L-Pro-L-Pro-L-Arg-pNA.2AcOH] (H-Pro-Pro-Arg-pNA)
Specificity: interference with C. tropicalis (Candida tropicalis; Table I): (b) | Reading at 24 h (Candida tropicalis): ++++ | Specificity: interference with C. tropicalis (Candida tropicalis; Table IV): (a) | Reading at 24 h (Candida albicans): +++ | Reading at 24 h (Candida krusei): -

Boc-L-Hyp-L-Pro-L-Arg-pNA.AcOH
T. GLABRATA reading at 24 h (T. glabrata [1]; Table III, medium pH 6.0): - | C. TROPICALIS reading at 24 h (Candida tropicalis): +

BzNH-D-Ala-Gly-L-Arg-pNA.AcOH
T. GLABRATA reading at 24 h (T. glabrata [1]; Table III, medium pH 6.0): - | C. TROPICALIS reading at 24 h (Candida tropicalis): ++

BzNH-L-Ala-Gly-L-Arg-pNA.AcOH
T. GLABRATA reading at 24 h (T. glabrata [1]; Table III, medium pH 6.0): - | C. TROPICALIS reading at 24 h (Candida tropicalis): +++

EM-L-Hyp-L-Arg-pNA.AcOH
T. GLABRATA reading at 48 h (T. glabrata [1]; Table III footnotes): +++ | T. GLABRATA reading at 24 h (T. glabrata [1]; Table III, medium pH 6.0): - | C. TROPICALIS reading at 48 h (Candida tropicalis; Table III footnotes): +++ | C. TROPICALIS reading at 24 h (Candida tropicalis): ++

EM-L-Phg-L-Arg-pNA.AcOH
T. GLABRATA reading at 24 h (T. glabrata [1]; Table III, medium pH 6.0): ++++ | Reading at t = 24 h (T. glabrata [2]; [3]): +++ | C. TROPICALIS reading at 24 h (Candida tropicalis): +++ | Reading at t = 24 h (C. albicans; [4]): - | Reading at t = 24 h (C. krusei; [4]): - | hydrolysis by the strains of C. tropicalis (C. tropicalis; Example 7, isolated strains, gelose 2): hydrolyzed | Reading at t = 24 h (C. tropicalis; [3]): ++

H-L-ONC-L-Arg-pNA.AcOH
Specificity: interference with C. guillermondii (Candida guillermondii; Table IV): (e) | Reading at 24 h (Candida guillermondii): ++++ | Reading at 24 h (Candida krusei): ++ | Specificity: interference with C. krusei (Candida krusei; Table V): (b)

MM-L-Phg-L-Arg-pNA.AcOH
T. GLABRATA reading at 24 h (T. glabrata [1]; Table III, medium pH 6.0): + +++ | C. TROPICALIS reading at 24 h (Candida tropicalis): ++
